Measured values as given in US8217024B2, “Conjugated estrogen compositions, applicators, kits, and methods of making and use thereof” (Teva Women's Health, Inc., priority 2005, dated 2012).

Experiment: Spreadability study (125 g load on 2 g product between two petri plates)
Format: physicochemical
Conditions: 15 minutes after 125 g load on 2 g of product
Procedure: Spreadability studies were also performed for the formulations described in Table 4. Spreadability studies were conducted by applying a 125 g weight load on 2 g of product placed between two petri plates. The weight was placed on the petri plate over the product and the mean diameter of spreading was monitored over 1, 5, and 15 minutes. Based upon the mean spread diameter, the spread area was calculated. See, e.g., De Paula et al., Drug Dev Ind Pharm 24(3): 235-241 (1998). The results for spreadability are indicated in Table 5 for spread area at 15 minutes after the 125 g load was applied.

SMILES | % Spread as compared to estimated human vaginal surface area (87.5 cm^2) [%] | Spread Area (cm^2)
OCC(O)CO [Glycerin] | 80.2 | 70.2
O [Water] | 89.4 | 78.2
